In ChEMBL document CHEMBL2384989, “Abietane diterpenoids and a sesquiterpene pyridine alkaloid from Euonymus lutchuensis” (J Nat Prod, 2013) one finds IC50 data, which are given here for seven compounds.

≈ marks a conversion by molar mass, not a printed value. Bounds are passed on as bounds.

Holding throughout (assay type): functional, cell-based
The test system of assay [1] is HCT-116. Kind of assay: Cytotoxicity against human HCT116 cells after 48 hrs by MTT assay. The conditions noted are these: HCT-116, 48 h. In general terms: Formazan colour is commonly taken as a measure of viable cells.
The subject of assay [2] is P388. In words: Cytotoxicity against mouse P388 cells after 48 hrs by MTT assay. The settings on record: P388, 48 h.
Assay [3] relates to HL-60. In words: Cytotoxicity against human HL60 cells after 48 hrs by MTT assay. The settings on record: HL-60, 48 h.

Take `CC(CO)c1ccc2c(c1)CC[C@H]1C(C)(C)C(=O)CC[C@]21C` (stereo partly specified): the IC50 in assay [1], in assay [2] and in assay [3] was more than 5 µg/mL each time.

Regarding `CC(O)c1ccc2c(c1)CC[C@H]1C(C)(C)C(=O)CC[C@]21C` (stereo partly specified), the IC50 in assay [1], in assay [2] and in assay [3] was more than 5 µg/mL each time.

For `CC(CO)c1ccc2c(c1)CC[C@H]1C(C)(C)[C@@H](O)C(=O)C[C@]21C` (stereo partly specified), the IC50 in assay [1], in assay [2] and in assay [3] was more than 5 µg/mL in each case.

Take `CC(CO)c1cc2c(cc1O)[C@@]1(C)CCC(=O)C(C)(C)[C@@H]1CC2` (stereo partly specified): the IC50 in assay [1] (read-out: IC50), in assay [2] (read-out: IC50) and in assay [3] (read-out: IC50) was less than 5 µg/mL in each case.

Turning to `CC(C)c1cc2c(cc1O)C[C@@]13CCCC(C)(C)[C@@H]1C[C@@H]2O3`, the IC50 in assay [1], in assay [2] and in assay [3] was more than 5 µg/mL in each case.

With `CC(=O)OC[C@]12[C@H](OC(C)=O)[C@H](OC(C)=O)[C@@H]3[C@@H](O)[C@@]14OC3(C)COC(=O)c1cccnc1[C@H](C)[C@@H](C)C(=O)O[C@H]([C@H](O)[C@@H]2OC(=O)c1ccccc1)C4(C)O` (stereo partly specified) [EUOLUCHUMINE], the IC50 in assay [1], in assay [2] and in assay [3] was more than 5 µg/mL each time.

For `CC(=O)O[C@H]1C(=O)[C@@]2(C)[C@H]([C@H](OC(=O)c3ccccc3)[C@]3(O)C[C@H](OC(=O)[C@H](O)[C@@H](NC(=O)c4ccccc4)c4ccccc4)C(C)=C1C3(C)C)[C@]1(OC(C)=O)CO[C@@H]1C[C@@H]2O` [PACLITAXEL], the IC50 in assay [1] (read-out: IC50) turned out to be 0.045 µg/mL (≈ 0.0527 µM); in assay [2] (read-out: IC50), 0.2 µg/mL (≈ 0.234 µM); in assay [3] (read-out: IC50) it was 0.005 µg/mL (≈ 0.00586 µM).

As a reminder, the IC50 is the midpoint of a concentration-inhibition curve.
